These are literature values, as cited in US20090196919A1, “OXCARBAZEPINE DOSAGE FORMS” (priority 2004, published 2009).

Each structure is given as a SMILES string.

For the compound `NC(=O)N1c2ccccc2CC(=O)c2ccccc21` [Oxcarbazepine, 10,11-dihydro-10-oxo-5H-dibenz[b,f]azepine-5-carboxamide], the solubility in water result is “poor”.
